In PubChem BioAssay (NCI):
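Each compound was tested at five concentrations against cells in 96-well plates for 48 hours. TGI: total growth inhibition.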

Key:
Assay in all cases: NCI tumour cell line growth inhibition, 48 h
[1] = system: 786-0 renal
[2] = system: ACHN renal
[3] = system: CCRF-CEM leukemia
[4] = system: HT29 colon
[5] = system: MALME-3M melanoma
[6] = system: MCF7 breast
[7] = system: MOLT-4 leukemia
[8] = system: RXF 393 renal
[9] = system: SK-MEL-2 melanoma
[10] = system: SNB-75 CNS
[11] = system: U251 CNS

Structure (SMILES)	TGI [1] [µM]	TGI [2] [µM]	TGI [3] [µM]	TGI [4] [µM]	TGI [5] [µM]	TGI [6] [µM]	TGI [7] [µM]	TGI [8] [µM]	TGI [9] [µM]	TGI [10] [µM]	TGI [11] [µM]
[O-][n+]1cc(SCc2ccccc2)ncc1SCc1ccccc1	> 10	> 10	> 10	> 10	> 10	> 10	> 10	> 10	> 10	> 10	> 10
O=C1CCc2c(sc3ncnc(Nc4cccc(Br)c4)c23)C1	19	8.04	4.38	27	4.85	22.3	> 27	7.51	23.8	12.5	9.02
COc1ccc(Cn2nc(OCc3ccccc3)c3cc([N+](=O)[O-])ccc32)cc1	> 100	> 100	> 100	> 100	> 100	> 100	> 100	> 100	> 100	> 100	
CC1=NNC(N)=N/C1=C\C(Sc1ccc(Cl)cc1)c1ccc(Cl)cc1Cl (stereo unspecified)	75.9	29.1	7.62	14.2	28.8	16.4	> 100	50.9	38	32.9	> 57.1
COc1nc2ncc([C@@H](O)[C@H](O)CO)nc2c(=O)[nH]1	> 100	> 100	> 100	> 100	> 100	> 100	> 100	> 100	> 100	> 100	> 100
CCN(CC)CCC1(C(=O)OC)SCCc2ccc(C)cc21 (stereo unspecified)	> 100	> 100	> 100		> 100	> 100	> 100	> 100	> 100	> 100	> 100
CC(=O)N1C(=O)/C(=C\C(=O)c2ccc(Cl)cc2)c2ccccc21	15.9	23.6	7.58	20.7	32.6	> 76.2	9.09	32.6	38.9	35	37.2
c1ccc2c(c1)[C@@H]1O[C@@H]1[C@@]13O[C@@]21[C@H]1O[C@H]1c1ccccc13	30.1	28.9	24.3	51.9	26.3	> 100	> 100	25.7	37.5	27.2	28.2
